Results: paper PMC10378394 (Current Issues in Molecular Biology, 2023)
Several values for one entry are separate records, joined by “and”; a condition that tells them apart may be missing. Equal entries are not always repeated.

Tests used:
HCT116 (KRAS G13D) = experiment: Cell proliferation assay (CellTiter-Glo); conditions: Homo sapiens, HCT-116, 72 h
Experimental: (§4) To assess cell viability, the CellTiter-Glo Luminescent Cell Viability Assay Reagent (Promega, Fitchburg, WI, USA) was added to each well. The assay measured ATP levels as an indicator of cell viability. All data points were normalized to the control samples treated with dimethyl sulfoxide when determining IC50 values. Statistical calculations and data analysis, including IC50 determination, were performed using GraphPad Prism software.

CSF1R [1] = target: CSF1R (Homo sapiens, UniProt P07333); experiment: Eurofins kinase assay
BTK(h) = BTK(h) (Homo sapiens, UniProt Q06187); experiment: Eurofins kinase assay
CDK7/cyclinH/MAT1(h) = CDK7/cyclinH/MAT1(h) (Homo sapiens, UniProt P50613); experiment: Eurofins kinase assay
LS513 (KRAS G12D) = experiment: Cell proliferation assay (CellTiter-Glo); conditions: Homo sapiens, LS-513, 72 h
Experimental: as §4

PKBα(h) = PKBα(h) (Homo sapiens, UniProt P31749); experiment: Eurofins kinase assay
CaMKIV(h) = CaMKIV(h) (Homo sapiens, UniProt Q16566); experiment: Eurofins kinase assay
PKCγ(h) = PKCγ(h) (Homo sapiens, UniProt P05129); experiment: Eurofins kinase assay
FGFR3(h) = FGFR3(h) (Homo sapiens, UniProt P22607); experiment: Eurofins kinase assay
PKCζ(h) = PKCζ(h) (Homo sapiens, UniProt Q05513); experiment: Eurofins kinase assay
EphB2(h) = EphB2(h) (Homo sapiens, UniProt P29323); experiment: Eurofins kinase assay
Pharmacokinetic study = format: in vivo, C57BL/6 mice
Experimental: Blood samples were collected at each time point for analysis. Plasma samples were analyzed by liquid chromatography–mass spectrometry (LC-MS/MS).

CK1δ(h) = CK1δ(h) (Homo sapiens, UniProt P48730); experiment: Eurofins kinase assay
PRAK(h) = PRAK(h) (Homo sapiens, UniProt Q8IW41); experiment: Eurofins kinase assay
EphB4(h) = EphB4(h) (Homo sapiens, UniProt P54760); experiment: Eurofins kinase assay
AKT phosphorylation = experiment: Western blot in LS513 cells; format: cell-based, human; conditions: LS513, 1 h treatment
Experimental: (§1) In 6-well plates, LS513 cells were seeded and allowed to adhere and proliferate for 24 h. […] After treatment, the cells were harvested using RIPA lysis buffer to extract cellular proteins. The cell lysates were subjected to Western blot analysis. Antibodies specific to phosphorylated epidermal growth factor receptor (p-EGFR, Cell Signaling Technology, Danvers, MA, USA, #2234S), epidermal growth factor receptor (EGFR, Cell Signaling Technology #2232S), phosphorylated vascular endothelial growth factor receptor (p-VEGFR, Cell Signaling Technology #3770S), vascular endothelial growth factor receptor (VEGFR, Cell Signaling Technology #2479S), phosphorylated Akt (p-Akt, Cell Signaling Technology #9271S), Akt (Cell Signaling Technology #9272S), phosphorylated MEK (p-MEK, Cell Signaling Technology #9121S), MEK (Cell Signaling Technology #9122), phosphorylated ERK (p-ERK, Cell Signaling Technology #9101S), and ERK (Cell Signaling Technology #9102S) were used for protein detection. The antibodies were diluted 1:1000 for the specific target proteins. In addition, a β-actin antibody (Sigma-Aldrich, Seoul, Republic of Korea, #A5441) diluted 1:5000 was used as a loading control. Bone-marrow-derived macrophages (BMDMs) were plated and allowed to adhere and proliferate for 24 h. […] Subsequently, the cells were stimulated with recombinant human angiopoietin-2 (R&D Systems, Minneapolis, MN, USA, #623-AN) and CSF1 (Peprotech, #300-25) for 15 min. After stimulation, protein samples were obtained from the cells. The cell lysates were analyzed by Western blot using specific antibodies, such as p-CSF1R (Cell Signaling, #14591S), CSF1R (Cell Signaling, #67455S), p-TIE2 (Cell Signaling, #4221S), and TIE2 (Santa Cruz Biotechnology, Dallas, TX, USA, #sc-293414), to detect and analyze the respective proteins.

[2] = system: MEK and ERK phosphorylation; experiment: Western blot in LS513 cells; format: cell-based, human
Experimental: as §1

BRAF (V600E) = BRAF (V600E) (Homo sapiens, UniProt P15056, V600E); experiment: Eurofins kinase assay
PAR-1Bα(h) = PAR-1Bα(h) (Homo sapiens, UniProt Q7KZI7); experiment: Eurofins kinase assay
CDK1/cyclinB(h) = CDK1/cyclinB(h) (Homo sapiens, UniProt P06493); experiment: Eurofins kinase assay
CSF1R [3] = target: T1, CSF1R (Mus musculus, UniProt P09581); experiment: Western blot in BMDMs, ligand-dependent phosphorylation; format: cell-based; conditions: 2 h treatment, CSF1 100 ng/mL 15 min
T1 construct: endogenous in cells; host or cells: mouse bone-marrow-derived macrophages (BMDMs)
Experimental: (§2) HCT116, LS513, SW620, HUVECs, and HT29 cell lines were purchased from the Korean Cell Line Bank (Seoul, Korea). All cell lines were maintained in RPMI or DMEM (Gibco Inc., Billings, MT, USA) supplemented with 10% FBS (Gibco, USA) and penicillin–streptomycin in an incubator at 37 °C and 5% CO2. Bone marrow cells were isolated from the femur and tibia of mice using a single-pass bone marrow aspiration. Cells were cultured in RPMI medium supplemented with 10% FBS and 100 ng/mL CSF1 (Peprotech, Rocky Hill, NJ, USA) for 7 days to differentiate into bone-marrow-derived macrophages (BMDMs).
(§3) In 6-well plates, LS513 cells were seeded and allowed to adhere and proliferate for 24 h. […] After treatment, the cells were harvested using RIPA lysis buffer to extract cellular proteins. The cell lysates were subjected to Western blot analysis. […] The cell lysates were analyzed by Western blot using specific antibodies, such as p-CSF1R (Cell Signaling, #14591S), CSF1R (Cell Signaling, #67455S), p-TIE2 (Cell Signaling, #4221S), and TIE2 (Santa Cruz Biotechnology, Dallas, TX, USA, #sc-293414), to detect and analyze the respective proteins.

TIE2 = target: T2, TIE2 (Mus musculus, UniProt Q02858); experiment: as above; format: cell-based; conditions: 2 h treatment, angiopoietin 2 100 ng/mL 15 min
T2 construct: endogenous in cells; host or cells: mouse bone-marrow-derived macrophages (BMDMs)
Experimental: as §2, §3

CDK3/cyclinE(h) = CDK3/cyclinE(h) (Homo sapiens, UniProt Q00526); experiment: Eurofins kinase assay
[4] = male, C57BL/6, mouse, plasma, iv 5 mg/kg
[5] = male, C57BL/6, mouse, plasma, po 40 mg/kg

Sequence of CSF1R (Homo sapiens, UniProt P07333) (P07333 20-972): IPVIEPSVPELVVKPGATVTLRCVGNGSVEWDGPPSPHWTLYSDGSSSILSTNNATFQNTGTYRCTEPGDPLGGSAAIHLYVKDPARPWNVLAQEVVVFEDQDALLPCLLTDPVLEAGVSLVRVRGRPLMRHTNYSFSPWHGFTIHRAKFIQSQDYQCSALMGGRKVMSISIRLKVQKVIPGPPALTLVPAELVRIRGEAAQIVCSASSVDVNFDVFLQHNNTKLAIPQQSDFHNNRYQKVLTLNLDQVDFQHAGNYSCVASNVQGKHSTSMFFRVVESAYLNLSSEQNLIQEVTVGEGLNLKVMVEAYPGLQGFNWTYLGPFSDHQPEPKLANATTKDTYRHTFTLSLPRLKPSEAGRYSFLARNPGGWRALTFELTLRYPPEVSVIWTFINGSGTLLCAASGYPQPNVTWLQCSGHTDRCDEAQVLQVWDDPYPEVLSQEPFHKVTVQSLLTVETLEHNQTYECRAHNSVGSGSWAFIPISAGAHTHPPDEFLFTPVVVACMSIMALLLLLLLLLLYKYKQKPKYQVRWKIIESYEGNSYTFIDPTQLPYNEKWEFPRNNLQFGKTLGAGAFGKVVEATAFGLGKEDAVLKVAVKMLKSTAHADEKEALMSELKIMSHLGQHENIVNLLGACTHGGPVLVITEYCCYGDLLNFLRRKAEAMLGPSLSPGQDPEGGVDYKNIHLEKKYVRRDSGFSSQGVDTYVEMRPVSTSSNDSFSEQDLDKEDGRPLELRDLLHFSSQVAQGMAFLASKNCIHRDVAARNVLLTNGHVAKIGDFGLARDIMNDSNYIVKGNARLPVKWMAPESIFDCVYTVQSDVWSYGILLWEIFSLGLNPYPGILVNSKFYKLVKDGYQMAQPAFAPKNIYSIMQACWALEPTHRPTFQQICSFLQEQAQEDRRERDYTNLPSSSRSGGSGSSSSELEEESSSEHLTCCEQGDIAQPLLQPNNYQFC
Sequence of BRAF (V600E) (P15056 whole entry V600E): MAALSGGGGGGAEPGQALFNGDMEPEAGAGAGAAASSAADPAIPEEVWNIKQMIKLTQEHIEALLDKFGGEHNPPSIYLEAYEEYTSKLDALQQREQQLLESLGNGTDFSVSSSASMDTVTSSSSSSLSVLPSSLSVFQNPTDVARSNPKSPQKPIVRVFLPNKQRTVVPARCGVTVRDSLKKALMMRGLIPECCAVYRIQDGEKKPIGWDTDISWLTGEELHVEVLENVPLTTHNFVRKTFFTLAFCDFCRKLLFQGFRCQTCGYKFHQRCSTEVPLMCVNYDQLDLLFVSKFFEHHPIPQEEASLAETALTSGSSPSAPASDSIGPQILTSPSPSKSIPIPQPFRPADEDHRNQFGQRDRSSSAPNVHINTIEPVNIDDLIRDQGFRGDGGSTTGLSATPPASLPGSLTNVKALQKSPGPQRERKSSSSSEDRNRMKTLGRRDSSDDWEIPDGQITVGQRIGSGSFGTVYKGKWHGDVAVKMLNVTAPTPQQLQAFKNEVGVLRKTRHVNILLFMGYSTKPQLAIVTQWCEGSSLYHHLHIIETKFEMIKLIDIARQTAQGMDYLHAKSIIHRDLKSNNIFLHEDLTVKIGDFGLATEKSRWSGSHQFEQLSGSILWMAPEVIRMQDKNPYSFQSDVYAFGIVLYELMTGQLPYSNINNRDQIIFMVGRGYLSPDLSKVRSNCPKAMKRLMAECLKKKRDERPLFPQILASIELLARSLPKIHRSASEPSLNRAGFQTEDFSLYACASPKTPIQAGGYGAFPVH
Sequence of BTK(h) (Q06187 whole entry): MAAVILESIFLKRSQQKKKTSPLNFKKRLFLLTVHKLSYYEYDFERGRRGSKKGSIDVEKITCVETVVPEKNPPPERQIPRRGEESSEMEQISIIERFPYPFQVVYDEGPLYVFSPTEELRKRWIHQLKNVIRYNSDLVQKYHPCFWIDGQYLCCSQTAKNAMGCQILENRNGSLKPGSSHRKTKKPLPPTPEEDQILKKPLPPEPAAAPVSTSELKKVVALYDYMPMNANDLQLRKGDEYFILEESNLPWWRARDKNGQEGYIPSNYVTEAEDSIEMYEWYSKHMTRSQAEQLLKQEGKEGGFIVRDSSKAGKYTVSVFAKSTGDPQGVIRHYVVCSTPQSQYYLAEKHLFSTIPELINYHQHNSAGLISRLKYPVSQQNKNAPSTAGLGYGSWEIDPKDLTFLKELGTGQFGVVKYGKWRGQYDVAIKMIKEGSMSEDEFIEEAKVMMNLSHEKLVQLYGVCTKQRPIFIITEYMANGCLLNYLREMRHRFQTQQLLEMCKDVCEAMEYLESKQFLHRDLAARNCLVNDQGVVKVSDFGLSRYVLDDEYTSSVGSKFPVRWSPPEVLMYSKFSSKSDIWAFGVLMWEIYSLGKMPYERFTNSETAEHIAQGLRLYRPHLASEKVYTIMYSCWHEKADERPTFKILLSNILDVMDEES
Sequence of EphB4(h) (P54760 16-987): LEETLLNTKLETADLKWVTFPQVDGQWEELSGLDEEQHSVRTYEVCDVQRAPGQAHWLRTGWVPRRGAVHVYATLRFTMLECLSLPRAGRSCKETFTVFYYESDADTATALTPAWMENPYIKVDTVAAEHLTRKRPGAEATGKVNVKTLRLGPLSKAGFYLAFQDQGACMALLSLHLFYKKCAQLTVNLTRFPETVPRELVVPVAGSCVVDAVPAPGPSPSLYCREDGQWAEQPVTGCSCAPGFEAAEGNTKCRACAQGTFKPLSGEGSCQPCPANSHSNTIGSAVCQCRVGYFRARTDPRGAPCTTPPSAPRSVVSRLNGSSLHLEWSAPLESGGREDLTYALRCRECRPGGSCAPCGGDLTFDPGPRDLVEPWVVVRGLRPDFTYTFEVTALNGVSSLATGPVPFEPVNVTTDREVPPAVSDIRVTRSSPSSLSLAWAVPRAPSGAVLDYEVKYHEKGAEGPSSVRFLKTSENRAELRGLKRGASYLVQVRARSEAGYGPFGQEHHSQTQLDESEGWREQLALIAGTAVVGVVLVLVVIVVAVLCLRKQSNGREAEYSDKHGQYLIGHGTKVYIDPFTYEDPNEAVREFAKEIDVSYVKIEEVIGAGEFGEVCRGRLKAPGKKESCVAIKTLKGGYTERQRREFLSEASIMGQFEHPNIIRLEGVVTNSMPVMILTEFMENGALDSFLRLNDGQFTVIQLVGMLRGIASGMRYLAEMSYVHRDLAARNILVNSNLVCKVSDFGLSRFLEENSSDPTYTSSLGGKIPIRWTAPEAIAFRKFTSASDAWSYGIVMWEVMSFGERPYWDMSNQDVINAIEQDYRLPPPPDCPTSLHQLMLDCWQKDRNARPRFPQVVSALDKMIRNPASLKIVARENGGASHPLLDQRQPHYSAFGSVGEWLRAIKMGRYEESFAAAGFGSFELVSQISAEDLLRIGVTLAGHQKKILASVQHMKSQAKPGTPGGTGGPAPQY
T1 sequence (P09581 20-977): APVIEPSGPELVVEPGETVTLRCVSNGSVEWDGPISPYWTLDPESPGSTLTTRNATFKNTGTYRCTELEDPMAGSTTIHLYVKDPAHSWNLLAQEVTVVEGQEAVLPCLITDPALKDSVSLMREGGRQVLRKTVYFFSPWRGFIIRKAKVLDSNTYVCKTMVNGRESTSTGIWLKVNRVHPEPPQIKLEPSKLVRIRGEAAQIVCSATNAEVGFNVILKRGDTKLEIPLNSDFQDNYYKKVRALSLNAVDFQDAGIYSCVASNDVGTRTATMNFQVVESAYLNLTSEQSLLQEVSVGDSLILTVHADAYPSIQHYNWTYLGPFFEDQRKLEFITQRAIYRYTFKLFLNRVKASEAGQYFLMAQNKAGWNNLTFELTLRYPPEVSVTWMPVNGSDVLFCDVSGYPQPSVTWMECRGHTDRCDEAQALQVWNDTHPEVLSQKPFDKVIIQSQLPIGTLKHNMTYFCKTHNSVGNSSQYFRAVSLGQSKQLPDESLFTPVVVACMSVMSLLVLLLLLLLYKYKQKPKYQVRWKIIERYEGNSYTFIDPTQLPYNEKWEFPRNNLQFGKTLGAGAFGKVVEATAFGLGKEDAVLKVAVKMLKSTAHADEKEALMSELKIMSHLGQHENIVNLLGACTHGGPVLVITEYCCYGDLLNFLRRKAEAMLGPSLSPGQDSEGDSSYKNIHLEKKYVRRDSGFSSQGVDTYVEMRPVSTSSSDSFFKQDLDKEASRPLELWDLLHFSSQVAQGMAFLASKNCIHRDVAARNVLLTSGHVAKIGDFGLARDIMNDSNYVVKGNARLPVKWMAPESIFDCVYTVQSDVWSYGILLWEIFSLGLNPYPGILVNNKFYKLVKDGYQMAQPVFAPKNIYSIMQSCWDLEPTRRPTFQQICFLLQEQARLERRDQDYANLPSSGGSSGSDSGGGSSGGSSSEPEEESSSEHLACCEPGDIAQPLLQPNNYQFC
Sequence of FGFR3(h) (P22607 23-806): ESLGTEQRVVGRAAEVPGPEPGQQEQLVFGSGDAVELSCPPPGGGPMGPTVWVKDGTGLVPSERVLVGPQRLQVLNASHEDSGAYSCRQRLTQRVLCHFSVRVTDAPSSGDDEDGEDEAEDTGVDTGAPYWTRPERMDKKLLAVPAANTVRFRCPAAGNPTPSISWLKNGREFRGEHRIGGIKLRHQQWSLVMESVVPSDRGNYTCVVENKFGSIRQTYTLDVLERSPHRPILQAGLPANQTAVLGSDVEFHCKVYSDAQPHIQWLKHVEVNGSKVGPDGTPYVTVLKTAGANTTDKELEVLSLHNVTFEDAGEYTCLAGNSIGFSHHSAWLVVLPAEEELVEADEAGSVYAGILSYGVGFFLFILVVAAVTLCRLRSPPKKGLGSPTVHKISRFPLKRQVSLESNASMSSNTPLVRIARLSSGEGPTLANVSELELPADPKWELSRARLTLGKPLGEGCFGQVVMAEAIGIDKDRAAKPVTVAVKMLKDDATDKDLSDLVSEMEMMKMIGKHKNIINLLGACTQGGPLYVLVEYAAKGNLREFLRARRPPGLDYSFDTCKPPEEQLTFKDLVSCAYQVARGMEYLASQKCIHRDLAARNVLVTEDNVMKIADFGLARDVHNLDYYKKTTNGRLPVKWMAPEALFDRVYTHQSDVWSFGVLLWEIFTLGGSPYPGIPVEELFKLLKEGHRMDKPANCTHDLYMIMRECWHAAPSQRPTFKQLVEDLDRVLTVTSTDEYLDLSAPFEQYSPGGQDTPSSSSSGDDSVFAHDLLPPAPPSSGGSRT

In the case of `O=C(Nc1cc(Nc2ncccc2-c2ncnc3[nH]cnc23)ccc1F)c1cc(C(F)(F)F)cc(C(F)(F)F)c1` [SJ-C1044, N-(5-(3-(9H-purin-6-yl)pyridin-2-ylamino)-2-fluorophenyl)-3,5-bis(trifluoromethyl)benzamide], the GI50 (HCT116 (KRAS G13D)) is reported as 160 nM, the IC50 (CSF1R [1]) is reported as 235 nM and the inhibition at 10 µM (CSF1R [1]) is reported as 70%. For the same molecule, the inhibition at 10 µM (BTK(h)) was 18%, the inhibition at 10 µM (CDK7/cyclinH/MAT1(h)) was 10% and the GI50 (LS513 (KRAS G12D)) was 290 nM. It also gave an inhibition at 10 µM (PKBα(h)) of 15%, an inhibition at 10 µM (CaMKIV(h)) of 2% and an inhibition at 10 µM (PKCγ(h)) of 1%. The inhibition at 10 µM (FGFR3(h)) was 48%, the inhibition at 10 µM (PKCζ(h)) was 1% and the inhibition at 10 µM (EphB2(h)) was -8%. The sustained plasma concentration (Pharmacokinetic study; for 16 h per day, 40 mg/kg once daily, 40 mg/kg) was ≥ 8000 ng/mL and ≥ 14 μM, the AUC(0-t) (Pharmacokinetic study; [4]) was 97.8 µg·h/mL and the Cmax (Pharmacokinetic study; [4]) was 11400 ng/mL. It also gave a Tmax (Pharmacokinetic study; [4]) of 1.6 h, an AUC(0-t) (Pharmacokinetic study; [5]) of 228 µg·h/mL and a Cmax (Pharmacokinetic study; [5]) of 14900 ng/mL. It also gave a Tmax (Pharmacokinetic study; [5]) of 4.3 h, a bioavailability (Pharmacokinetic study; [5]) of 23% and an inhibition at 10 µM (CK1δ(h)) of 0%. For the same molecule, the inhibition at 10 µM (PRAK(h)) was -15%, the inhibition at 10 µM (EphB4(h)) was -6% and the AKT phosphorylation (AKT phosphorylation) was “no detectable difference”. For the same molecule, the “paradoxical activation of MEK and ERK” value ([2]; KRAS-mutated colorectal cancer cells) was “without any evidence of paradoxical activation”, the “MEK and ERK phosphorylation” value ([2]; LS513, 1 h treatment) was “inhibited MEK and ERK phosphorylation potently” and the inhibition at 10 µM (BRAF (V600E)) was 80%. The inhibition at 10 µM (PAR-1Bα(h)) was 3%, the inhibition at 10 µM (CDK1/cyclinB(h)) was -10% and the “ligand-dependent phosphorylation of CSF1R” value (CSF1R [3]) was “significant inhibitory effects”. For the same molecule, the “ligand-dependent phosphorylation of TIE2” value (TIE2) was “significant inhibitory effects” and the inhibition at 10 µM (CDK3/cyclinE(h)) was -7%.
